The source of these data is patent US11787796B2, “Plasma Kallikrein inhibitors and uses thereof” (Takeda Pharmaceutical Company Limited, priority 2019, dated 2023).

For this assay, the target named is human activated kallikrein enzyme (Homo sapiens (Human), UniProt P03952). Nature of the assay: Plasma kallikrein inhibition assay with fluorogenic peptide substrate, 500 pM activated kallikrein format. Particulars: 500 pM activated kallikrein; 300 uM Pro-Phe-Arg-7-amido-4-methylcoumarin substrate; 30 min preincubation, 10 min reaction at RT; read-out: Primary Dose Response Assay: Average EC50. Format: biochemical. The procedure:
Example compounds were evaluated for inhibition of the human activated kallikrein enzyme in two formats of an assay employing a fluorogenic peptide substrate. In one assay format, the concentrations of reagents were as follows: 20 mM Tris pH 7.5, 1 mM EDTA, 150 mM sodium chloride, 0.1% PEG-400, 0.1% Triton X-100, […], 300 uM Pro-Phe-Arg-7-amido-4-methylcoumarin substrate. Prior to reaction initiation with substrate, enzyme and inhibitors were preincubated for 30 min at RT. After initiation with substrate, reactions were incubated for 10 min at RT and fluorescence emission at 460 nm from 380 nm excitation measured with a microplate reader. In another assay format, the concentrations of reagents were as follows: 20 mM Tris pH 7.5, 1 mM EDTA, 150 mM sodium chloride, 0.1% PEG-400, 0.1% Triton X-100, 5 pM activated kallikrein enzyme, 300 uM Pro-Phe-Arg-7-amido-4-methylcoumarin substrate. Prior to reaction initiation with substrate, enzyme and inhibitors were preincubated for 30 min at RT. After initiation with substrate, reactions were incubated for 18 h at RT and fluorescence emission at 460 nm from 380 nm excitation measured with a microplate reader.
Table II provides the results of the assay in the format with 500 pM activated kallikrein assay.
Table III provides comparative plasma kallikrein inhibition potency in the assay format with 500 pM activated kallikrein assay (described in detail in the preceding example).

human activated kallikrein enzyme, sequence (P03952 391-638): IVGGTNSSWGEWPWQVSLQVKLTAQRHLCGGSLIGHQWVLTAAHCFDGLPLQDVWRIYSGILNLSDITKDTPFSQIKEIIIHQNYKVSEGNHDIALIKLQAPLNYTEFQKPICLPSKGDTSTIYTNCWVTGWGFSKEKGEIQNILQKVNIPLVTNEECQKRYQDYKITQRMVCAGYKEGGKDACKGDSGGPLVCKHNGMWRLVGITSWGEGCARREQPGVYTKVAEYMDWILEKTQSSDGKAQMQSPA
human activated kallikrein enzyme, sequence (P03952 20-390 partner): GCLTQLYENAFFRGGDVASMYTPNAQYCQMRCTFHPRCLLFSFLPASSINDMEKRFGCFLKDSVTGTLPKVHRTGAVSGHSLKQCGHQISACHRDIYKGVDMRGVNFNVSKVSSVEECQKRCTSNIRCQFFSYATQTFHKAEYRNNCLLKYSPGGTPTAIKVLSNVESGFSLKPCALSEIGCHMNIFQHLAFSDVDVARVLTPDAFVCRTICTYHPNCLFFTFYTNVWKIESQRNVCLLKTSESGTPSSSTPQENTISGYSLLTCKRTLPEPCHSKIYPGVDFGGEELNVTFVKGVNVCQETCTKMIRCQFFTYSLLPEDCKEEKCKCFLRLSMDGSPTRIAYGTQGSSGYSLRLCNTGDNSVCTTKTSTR

Consider `O=C(NCc1cc2c(Cl)c[nH]c2cn1)c1cn(Cc2cn3cc(C4CC4)ccc3n2)nn1` [Example I-146, N-((3-chloro-1H-pyrrolo[2,3-c]pyridin-5-yl)methyl)-1-((6-cyclopropylimidazo[1,2-a]pyridin-2-yl)methyl)-1H-1,2,3-triazole-4-carboxamide], for which the EC50 was 1 to 10 nM.

Take `N=C(N)c1ccc(CNS(=O)(=O)c2cnn(Cc3cn4cc(C5CC5)ccc4n3)c2)cc1` [Example I-32, 4-(((1-((6-cyclopropylimidazo[1,2-a]pyridin-2-yl)methyl)-1H-pyrazole)-4-sulfonamido)methyl)benzimidamide]: the EC50 lay in the range of 1 to 10 nM.

With `CC(NS(=O)(=O)c1cnn(Cc2cn3cc(C4CC4)ccc3n2)c1)c1ccc(Cl)cc1` (centres unmarked) [Example I-37], the EC50 is over 7100 nM.

Consider `COc1ccc(-n2cnnn2)c(CNC(=O)c2cn3c(n2)OCC3c2cn3cc(C4CC4)ccc3n2)c1F` (centres unmarked) [Example I-9, 3-(6-cyclopropylimidazo[1,2-a]pyridin-2-yl)-N-(2-fluoro-3-methoxy-6-(1H-tetrazol-1-yl)benzyl)-2,3-dihydroimidazo[2,1-b]oxazole-6-carboxamide], for which the EC50 was in the range of 10 to 100 nM.

On to `COc1ccc(-c2ccc(C(=O)O)cc2)c(CNC(=O)c2cn(Cc3cn4cc(C5CC5)ccc4n3)nn2)c1F` [Example I-88, 2′-((1-((6-cyclopropylimidazo[1,2-a]pyridin-2-yl)methyl)-1H-1,2,3-triazole-4-carboxamido)methyl)-3′-fluoro-4′-methoxy-[1,1′-biphenyl]-4-carboxylic acid], for which the EC50 was in the range of 1 to 10 nM.

Take `O=C(NCc1cc(Cl)ccc1-n1cc(Cl)nn1)c1cn(Cc2cn3cc(C4CC4)ccc3n2)nn1` [Example I-3, N-(5-chloro-2-(4-chloro-1H-1,2,3-triazol-1-yl)benzyl)-1-((6-cyclopropylimidazo[1,2-a]pyridin-2-yl)methyl)-1H-1,2,3-triazole-4-carboxamide]: the EC50 was 10 to 100 nM.

In the case of `COc1ccc(-n2cnnn2)c(CNC(=O)c2cn(Cc3cn4cc(C5CC5)cc(C5(F)COC5)c4n3)nn2)c1F` [Example I-91, 1-((6-cyclopropyl-8-(3-fluorooxetan-3-yl)imidazo[1,2-a]pyridin-2-yl)methyl)-N-(2-fluoro-3-methoxy-6-(1H-tetrazol-1-yl)benzyl)-1H-1,2,3-triazole-4-carboxamide], the EC50 is at most 1 nM.

Regarding `COc1ccc(C#N)c(CNC(=O)c2cn(Cc3cn4cc(C5CC5)cc(CCC(=O)O)c4n3)nn2)c1F` [Example I-107, 3-(2-((4-((6-cyano-2-fluor-3-methoxybenzyl)carbamoyl)-1H-1,2,3-triazol-1-yl)methyl)-6-cyclopropylimidazo[1,2-a]pyridin-8-yl)propanoic Acid], the EC50 is at most 1 nM.

In the case of `Cc1cc(N)nc(C)c1CNC(=O)c1cn(Cc2cn3cc(C4CC4)ccc3n2)nn1` [Example I-26, N-((6-amino-2,4-dimethylpyridin-3-yl)methyl)-1-((6-cyclopropylimidazo[1,2-a]pyridin-2-yl)methyl)-1H-1,2,3-triazole-4-carboxamide], the EC50 was at most 1 nM.

For the molecule `N#Cc1cc(C2CC2)cn2cc(Cn3cc(C(=O)NC4CCc5c4ccnc5N)nn3)nc12` (centres unmarked) [Example I-14, N-(1-amino-6,7-dihydro-5H-cyclopenta[c]pyridin-5-yl)-1-((8-cyano-6-cyclopropylimidazo[1,2-a]pyridin-2-yl)methyl)-1H-1,2,3-triazole-4-carboxamide], the EC50 lay in the range of 1 to 10 nM.

Regarding `O=C(NCc1c(-n2cnnn2)ccc(C2CC2)c1F)c1cn(Cc2cn3cc(C4CC4)ccc3n2)nn1` [Example I-78, N-(3-cyclopropyl-2-fluoro-6-(1H-tetrazol-1-yl)benzyl)-1-((6-cyclopropylimidazo[1,2-a]pyridin-2-yl)methyl)-1H-1,2,3-triazole-4-carboxamide], the EC50 was 10 to 100 nM.

On to `Cc1cc2[nH]ccc2c(C)c1CNC(=O)c1cnn(Cc2cn3cc(C4CC4)ccc3n2)c1` [Example I-124, 1-((6-cyclopropylimidazo[1,2-a]pyridin-2-yl)methyl)-N-((4,6-dimethyl-1H-indol-5-yl)methyl)-1H-pyrazole-4-carboxamide], for which the EC50 fell in the range of 10 to 100 nM.

Consider `COc1ccc(-n2cnnn2)c(CNCc2cn(Cc3cn4cc(C5CC5)ccc4n3)nn2)c1F` [Example I-29, 1-(1-((6-cyclopropylimidazo[1,2-a]pyridin-2-yl)methyl)-1H-1,2,3-triazol-4-yl)-N-(2-fluoro-3-methoxy-6-(1H-tetrazol-1-yl)benzyl)methanamine], for which the EC50 lay in the range of 1 to 10 nM.

For the molecule `COc1ccc(-c2c[nH]nn2)c(CNC(=O)c2cn(Cc3cn4cc(C5CC5)ccc4n3)nn2)c1F` [Example I-50], the EC50 is over 7100 nM.

In the case of `NCc1cc2c(cn1)N(C(=O)c1cn(Cc3cn4cc(C5CC5)ccc4n3)nn1)CC2` [Example I-147, (5-(aminomethyl)-2,3-dihydro-1H-pyrrolo[2,3-c]pyridin-1-yl)(1-((6-cyclopropylimidazo[1,2-a]pyridin-2-yl)methyl)-1H-1,2,3-triazol-4-yl)methanone], the EC50 was 100 to 2000 nM.

As to `CCOC(=O)CCc1cc(C2CC2)cn2cc(Cn3cc(C(=O)NCc4c(-n5cnnn5)ccc(OC)c4F)nn3)nc12` [Example I-89, ethyl 3-(6-cyclopropyl-2-((4-((2-fluoro-3-methoxy-6-(1H-tetrazol-1-yl)benzyl)carbamoyl)-1H-1,2,3-triazol-1-yl)methyl)imidazo[1,2-a]pyridin-8-yl)propanoate], the EC50 was at most 1 nM.

On to `COc1ccc(-n2cnnn2)c(CNC(=O)c2cn(Cc3cn4cc(C5CC5)cc(-n5cnnc5)c4n3)nn2)c1F` [Example I-71, 1-((6-cyclopropyl-8-(4H-1,2,4-triazol-4-yl)imidazo[1,2-a]pyridin-2-yl)methyl)-N-(2-fluoro-3-methoxy-6-(1H-tetrazol-1-yl)benzyl)-1H-1,2,3-triazole-4-carboxamide], for which the EC50 is at most 1 nM.

On to `O=C(NCc1cc(=O)[nH]c2ccc(Br)cc12)c1cnn(Cc2cn3cc(C4CC4)ccc3n2)c1` [Example I-122, N-((6-bromo-2-oxo-1,2-dihydroquinolin-4-yl)methyl)-1-((6-cyclopropylimidazo[1,2-a]pyridin-2-yl)methyl)-1H-pyrazole-4-carboxamide], for which the EC50 is 1 to 10 nM.

For `COc1ccc(-c2cc3ccccn3n2)c(CNC(=O)c2cn(Cc3cn4cc(C5CC5)ccc4n3)nn2)c1F` [Example I-63, 1-((6-cyclopropylimidazo[1,2-a]pyridin-2-yl)methyl)-N-(2-fluoro-3-methoxy-6-(pyrazolo[1,5-a]pyridin-2-yl)benzyl)-1H-1,2,3-triazole-4-carboxamide], the EC50 was 100 to 2000 nM.

Turning to `O=C(NCc1cc(Cl)ccn1)c1cn(Cc2cn3cc(C4CC4)ccc3n2)nn1` [Example I-142, N-((4-chloropyridin-2-yl)methyl)-1-((6-cyclopropylimidazo[1,2-a]pyridin-2-yl)methyl)-1H-1,2,3-triazole-4-carboxamide], the EC50 was in the range of 2000 to 7100 nM.

For the molecule `COc1ccnc(CNC(=O)c2cn3c(n2)CCC3c2cn3cc(C4CC4)ccc3n2)c1F` (centres unmarked) [Example I-5, 5-(6-cyclopropylimidazo[1,2-a]pyridin-2-yl)-N-((3-fluoro-4-methoxypyridin-2-yl)methyl)-6,7-dihydro-5H-pyrrolo[1,2-a]imidazole-2-carboxamide], the EC50 fell in the range of 10 to 100 nM.

With `COc1ccc(-n2cnnn2)c(CNC(=O)c2cn(Cc3cn4cc(C5CC5)cc(C(O)C5COC5)c4n3)nn2)c1F` (centres unmarked) [Example I-27, 1-((6-cyclopropyl-8-(hydroxy(oxetan-3-yl)methyl)imidazo[1,2-a]pyridin-2-yl)methyl)-N-(2-fluoro-3-methoxy-6-(1H-tetrazol-1-yl)benzyl)-1H-1,2,3-triazole-4-carboxamide], the EC50 was at most 1 nM.

As for `Cc1cc2[nH]cc(Cl)c2c(C)c1CNC(=O)c1cnn(Cc2cn3cc(C4CC4)ccc3n2)c1` [Example I-123, N-((3-chloro-4,6-dimethyl-1H-indol-5-yl)methyl)-1-((6-cyclopropylimidazo[1,2-a]pyridin-2-yl)methyl)-1H-pyrazole-4-carboxamide], the EC50 was 10 to 100 nM.

Turning to `COc1ccc(-n2cc(C)c(C)n2)c(CNC(=O)c2cn(Cc3cn4cc(C5CC5)ccc4n3)nn2)c1F` [Example I-73, 1-((6-cyclopropylimidazo[1,2-a]pyridin-2-yl)methyl)-N-(6-(3,4-dimethyl-1H-pyrazol-1-yl)-2-fluoro-3-methoxybenzyl)-1H-1,2,3-triazole-4-carboxamide], the EC50 lay within 10 to 100 nM.

Turning to `Cc1cc2c(N)noc2c(C)c1CNC(=O)c1cnn(Cc2cn3cc(C4CC4)ccc3n2)c1` [Example I-134, N-((3-amino-5,7-dimethylbenzo[d]isoxazol-6-yl)methyl)-1-((6-cyclopropylimidazo[1,2-a]pyridin-2-yl)methyl)-1H-pyrazole-4-carboxamide], the EC50 lay in the range of 2000 to 7100 nM.

For `COc1ccc(S(C)(=O)=O)c(CNC(=O)c2cn(Cc3cn4cc(C5CC5)ccc4n3)nn2)c1F` [Example I-53, 1-((6-cyclopropylimidazo[1,2-a]pyridin-2-yl)methyl)-N-(2-fluoro-3-methoxy-6-(methylsulfonyl)benzyl)-1H-1,2,3-triazole-4-carboxamide], the EC50 fell in the range of 100 to 2000 nM.

Broadly, the EC50 is the concentration at which the effect is half-maximal.
